Reference: ChEMBL document CHEMBL3991601, “The target landscape of clinical kinase drugs” (Science, 2017)
Structures can show the parent of a compound that is named as a salt. The source made the active and inactive calls.

How the values were obtained:
Actin-related protein 2 = Actin-related protein 2 (Homo sapiens, UniProt P61160)
[1] = target: T1, Serine/threonine-protein kinase ULK3 (Homo sapiens, UniProt Q6PHR2)
T1 sequence (Q6PHR2 whole entry): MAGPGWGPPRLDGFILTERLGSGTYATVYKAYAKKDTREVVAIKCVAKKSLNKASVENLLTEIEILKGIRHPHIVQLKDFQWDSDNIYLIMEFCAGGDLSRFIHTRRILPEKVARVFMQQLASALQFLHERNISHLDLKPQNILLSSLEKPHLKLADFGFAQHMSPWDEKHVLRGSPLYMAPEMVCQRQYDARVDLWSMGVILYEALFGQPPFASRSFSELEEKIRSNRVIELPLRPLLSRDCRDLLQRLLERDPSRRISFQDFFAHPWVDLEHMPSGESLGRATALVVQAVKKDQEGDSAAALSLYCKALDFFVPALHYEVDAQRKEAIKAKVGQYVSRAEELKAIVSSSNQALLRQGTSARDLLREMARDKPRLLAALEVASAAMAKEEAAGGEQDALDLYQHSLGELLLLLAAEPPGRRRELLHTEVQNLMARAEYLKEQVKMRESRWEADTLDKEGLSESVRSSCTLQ

[2] = target: T2, Serine/threonine-protein kinase NLK (Homo sapiens, UniProt Q9UBE8)
T2 sequence (Q9UBE8 whole entry): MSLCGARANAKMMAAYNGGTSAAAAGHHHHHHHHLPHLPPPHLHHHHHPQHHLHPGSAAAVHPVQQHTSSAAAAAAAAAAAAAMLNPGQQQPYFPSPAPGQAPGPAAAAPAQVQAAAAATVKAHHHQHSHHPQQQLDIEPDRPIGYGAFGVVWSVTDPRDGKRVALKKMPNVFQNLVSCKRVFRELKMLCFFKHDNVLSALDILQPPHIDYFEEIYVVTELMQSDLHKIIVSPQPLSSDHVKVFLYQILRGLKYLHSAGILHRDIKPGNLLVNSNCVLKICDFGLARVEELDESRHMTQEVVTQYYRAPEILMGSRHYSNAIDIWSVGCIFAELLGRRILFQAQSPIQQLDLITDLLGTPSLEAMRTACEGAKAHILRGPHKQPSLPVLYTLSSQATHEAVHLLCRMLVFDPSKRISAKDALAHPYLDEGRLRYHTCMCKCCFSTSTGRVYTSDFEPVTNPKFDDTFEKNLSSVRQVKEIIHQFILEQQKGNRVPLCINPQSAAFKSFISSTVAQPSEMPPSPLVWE

DNA topoisomerase 2-beta = DNA topoisomerase 2-beta (Homo sapiens, UniProt Q02880)
[3] = target: T3, Non-receptor tyrosine-protein kinase TNK1 (Homo sapiens, UniProt Q13470)
T3 sequence (Q13470 whole entry): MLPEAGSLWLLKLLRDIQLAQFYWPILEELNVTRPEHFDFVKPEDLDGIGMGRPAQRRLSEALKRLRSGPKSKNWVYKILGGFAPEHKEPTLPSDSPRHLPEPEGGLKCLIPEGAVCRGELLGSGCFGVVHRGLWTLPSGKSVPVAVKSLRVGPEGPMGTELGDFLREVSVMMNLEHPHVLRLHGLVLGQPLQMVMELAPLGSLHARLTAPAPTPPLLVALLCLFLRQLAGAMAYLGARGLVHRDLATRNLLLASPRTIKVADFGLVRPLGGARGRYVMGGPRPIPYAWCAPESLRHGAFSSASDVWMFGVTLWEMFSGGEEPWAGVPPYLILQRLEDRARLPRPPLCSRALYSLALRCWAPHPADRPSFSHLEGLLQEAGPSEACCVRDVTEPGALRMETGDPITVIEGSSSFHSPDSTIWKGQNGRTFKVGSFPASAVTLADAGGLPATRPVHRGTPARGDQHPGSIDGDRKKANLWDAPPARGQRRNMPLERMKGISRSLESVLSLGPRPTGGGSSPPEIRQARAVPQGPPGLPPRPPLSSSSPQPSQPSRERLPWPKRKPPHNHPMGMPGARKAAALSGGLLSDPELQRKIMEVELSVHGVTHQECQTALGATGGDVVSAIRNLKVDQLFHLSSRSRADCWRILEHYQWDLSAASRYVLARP
Also: in the data inactive means no Kd found up to 30 µM.

DNA topoisomerase 2-beta, sequence (Q02880 whole entry): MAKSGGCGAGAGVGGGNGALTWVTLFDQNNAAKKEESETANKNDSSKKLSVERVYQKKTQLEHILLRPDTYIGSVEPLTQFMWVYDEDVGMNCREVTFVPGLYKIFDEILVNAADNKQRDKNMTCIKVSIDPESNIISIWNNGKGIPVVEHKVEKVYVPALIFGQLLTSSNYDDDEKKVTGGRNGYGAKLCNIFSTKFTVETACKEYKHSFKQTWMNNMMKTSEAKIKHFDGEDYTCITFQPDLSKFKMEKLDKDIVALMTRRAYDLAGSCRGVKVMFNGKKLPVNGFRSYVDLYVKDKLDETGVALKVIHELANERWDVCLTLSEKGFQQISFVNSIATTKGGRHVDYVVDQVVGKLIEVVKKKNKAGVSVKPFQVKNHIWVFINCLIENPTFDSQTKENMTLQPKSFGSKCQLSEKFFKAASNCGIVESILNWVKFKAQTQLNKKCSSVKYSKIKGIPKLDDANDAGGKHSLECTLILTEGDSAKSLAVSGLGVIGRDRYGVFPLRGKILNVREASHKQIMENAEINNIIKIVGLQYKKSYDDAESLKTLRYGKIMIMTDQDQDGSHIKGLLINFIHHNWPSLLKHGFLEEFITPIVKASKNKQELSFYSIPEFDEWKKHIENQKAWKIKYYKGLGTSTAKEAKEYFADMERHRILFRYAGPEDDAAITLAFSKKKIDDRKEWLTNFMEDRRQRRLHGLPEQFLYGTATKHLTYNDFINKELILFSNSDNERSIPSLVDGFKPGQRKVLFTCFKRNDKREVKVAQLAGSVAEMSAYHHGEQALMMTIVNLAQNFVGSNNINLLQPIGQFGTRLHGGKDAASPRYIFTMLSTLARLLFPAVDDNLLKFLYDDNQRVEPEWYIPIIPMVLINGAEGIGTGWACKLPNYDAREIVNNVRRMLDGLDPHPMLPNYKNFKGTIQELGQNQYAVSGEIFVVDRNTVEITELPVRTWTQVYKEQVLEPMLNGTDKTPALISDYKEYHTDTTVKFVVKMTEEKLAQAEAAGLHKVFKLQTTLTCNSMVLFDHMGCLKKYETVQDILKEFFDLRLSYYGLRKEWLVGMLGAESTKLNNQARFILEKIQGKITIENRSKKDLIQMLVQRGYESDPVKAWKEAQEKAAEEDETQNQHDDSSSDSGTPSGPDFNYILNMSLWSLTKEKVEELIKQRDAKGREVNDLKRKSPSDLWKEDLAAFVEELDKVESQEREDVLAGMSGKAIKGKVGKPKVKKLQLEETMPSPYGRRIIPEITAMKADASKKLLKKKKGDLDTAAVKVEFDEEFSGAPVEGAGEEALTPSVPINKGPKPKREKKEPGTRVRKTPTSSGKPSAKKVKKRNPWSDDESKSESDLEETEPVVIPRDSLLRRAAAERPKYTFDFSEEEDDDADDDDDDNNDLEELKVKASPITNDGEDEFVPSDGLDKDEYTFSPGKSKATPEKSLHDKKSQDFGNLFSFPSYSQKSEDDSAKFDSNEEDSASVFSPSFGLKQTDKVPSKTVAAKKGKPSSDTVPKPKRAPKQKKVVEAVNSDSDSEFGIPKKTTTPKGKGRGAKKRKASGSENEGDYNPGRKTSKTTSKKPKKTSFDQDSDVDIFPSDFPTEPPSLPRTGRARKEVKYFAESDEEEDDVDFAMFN

| Compound | Kd (Actin-related protein 2) | Kd [1] | Kd [2] | Kd (DNA topoisomerase 2-beta) | Kd [3] |
| --- | --- | --- | --- | --- | --- |
| Cn1cc(-c2cnc3ccc4ccc(CS(=O)(=O)NCc5ccccn5)cc4c(=O)c3c2)cn1 [MK-8033] | > 30 µM (inactive) | > 30 µM (inactive) | > 30 µM (inactive) | > 30 µM (inactive) | > 30 µM (inactive) |
| Cn1cc(C2=C(c3cn(C4CCN(Cc5ccccn5)CC4)c4ccccc34)C(=O)NC2=O)c2ccccc21 [ENZASTAURIN] | > 30 µM (inactive) |  |  | > 30 µM (inactive) |  |
| CN(C[C@@H]1COCCO1)S(=O)(=O)Nc1ccc2ccc3ncc(-c4cnn(C)c4)cc3c(=O)c2c1 [MK-2461] | > 30 µM (inactive) | > 30 µM (inactive) | > 30 µM (inactive) | > 30 µM (inactive) | > 30 µM (inactive) |
| CN1C/C=C/CCOc2cccc(c2)-c2ccnc(n2)Nc2cccc(c2)C1 [ZOTIRACICLIB] | > 30 µM (inactive) | > 30 µM (inactive) | > 30 µM (inactive) | > 30 µM (inactive) | > 30 µM (inactive) |
| CC(=O)c1cnc2ccc(-c3cc(Cl)c(O)c(Cl)c3)nc2c1N[C@H]1CC[C@H](CN(C)C)CC1 | > 30 µM (inactive) |  | 0.024 µM (active) | > 30 µM (inactive) | 1.78 µM (active) |
| Cc1cc(Nc2ncc(Cl)c(Nc3ccccc3S(=O)(=O)C(C)C)n2)c(OC(C)C)cc1C1CCNCC1 [CERITINIB] | > 30 µM (inactive) | > 30 µM (inactive) | > 30 µM (inactive) | > 30 µM (inactive) | 0.027 µM (active) |
| CC(C)(C)c1nc(-c2cccc(NS(=O)(=O)c3c(F)cccc3F)c2F)c(-c2ccnc(N)n2)s1 [DABRAFENIB] | > 30 µM (inactive) | 1.48 µM | > 30 µM (inactive) | > 30 µM (inactive) | 0.066 µM (active) |
| Cc1nc2cc(-n3ncc(C(=O)c4cc5ccccc5[nH]4)c3N)ccc2[nH]1 [FGFR INHIBITOR DEBIO 1347] | > 30 µM (inactive) | > 30 µM (inactive) | > 30 µM (inactive) | > 30 µM (inactive) | > 30 µM (inactive) |
| CCn1cc(-c2ccnc3[nH]c(-c4cccc(CN(C)C)c4)cc23)c(-c2ccc(NC(=O)N(C)C)cc2)n1 [GSK-1070916] | > 30 µM (inactive) | > 30 µM (inactive) | > 30 µM (inactive) | > 30 µM (inactive) |  |
| C[C@@H](N)c1ccc(C(=O)Nc2ccnc3[nH]ccc23)cc1 [Y-39983] | > 30 µM (inactive) | > 30 µM (inactive) | > 30 µM (inactive) | > 30 µM (inactive) | > 30 µM (inactive) |
| N#CC1(c2ccc(NC(=O)c3cccnc3NCc3ccncc3)cc2)CCCC1 [RIVOCERANIB] | > 30 µM (inactive) | > 30 µM (inactive) | > 30 µM (inactive) | > 30 µM (inactive) | > 30 µM (inactive) |
| CCNC(=O)C#Cc1ccc2c(c1)NC(=O)/C2=C(\Nc1ccc(CN(C)C)cc1)c1ccccc1 | > 30 µM (inactive) | 0.612 µM (active) | > 30 µM (inactive) | > 30 µM (inactive) | > 30 µM (inactive) |
| CC(C)c1cc(CNc2nc(Nc3cc(C4CC4)[nH]n3)cc(N3CCN(C)CC3)n2)on1 [XL-228] | > 30 µM (inactive) | 0.492 µM (active) | > 30 µM (inactive) | > 30 µM (inactive) | 0.003 µM (active) |
| CO[C@H]1C[C@@H]2CC[C@@H](C)[C@@](O)(O2)C(=O)C(=O)N2CCCC[C@H]2C(=O)O[C@H]([C@H](C)C[C@@H]2CC[C@@H](O)[C@H](OC)C2)CC(=O)[C@H](C)/C=C(\C)[C@@H](O)[C@@H](OC)C(=O)[C@H](C)C[C@H](C)/C=C/C=C/C=C/1C [SIROLIMUS] | > 30 µM (inactive) | > 30 µM (inactive) | > 30 µM (inactive) | > 30 µM (inactive) | > 30 µM (inactive) |
| COc1cc(Nc2ncc3c(n2)-c2ccc(Cl)cc2C(c2c(F)cccc2OC)=NC3)ccc1C(=O)O [ALISERTIB] | > 30 µM (inactive) |  | > 30 µM (inactive) | > 30 µM (inactive) |  |
| O=C(Nc1cc(C(F)(F)F)cc(C(F)(F)F)c1)c1cc(Cl)ccc1O [IMD-0354] | > 30 µM (inactive) | > 30 µM (inactive) | > 30 µM (inactive) | > 30 µM (inactive) | > 30 µM (inactive) |

| Compound | Kd (Actin-related protein 2) | Kd [1] | Kd [2] | Kd (DNA topoisomerase 2-beta) | Kd [3] |
| --- | --- | --- | --- | --- | --- |
| Cc1cc(Nc2ncnc3ccc(NC4=NC(C)(C)CO4)cc23)ccc1Oc1ccn2ncnc2c1 [TUCATINIB] | > 30 µM (inactive) | > 30 µM (inactive) | > 30 µM (inactive) | > 30 µM (inactive) | > 30 µM (inactive) |
| CCS(=O)(=O)c1cccc(-c2cc(C(=O)NC3CCN(C)CC3)c(C)c3[nH]c4ncc(C)cc4c23)c1 [TAK-901] | > 30 µM (inactive) | > 30 µM (inactive) | > 30 µM (inactive) | > 30 µM (inactive) | 0.558 µM |
| O=C(Cc1ccc(-c2ccc(OCCN3CCOCC3)cc2)cn1)NCc1ccccc1 [TIRBANIBULIN] | > 30 µM (inactive) | > 30 µM (inactive) | > 30 µM (inactive) | > 30 µM (inactive) | > 30 µM (inactive) |
| COc1cc2ncnc(Oc3cccc(NC(=O)Nc4cc(C(C)(C)C(F)(F)F)on4)c3)c2cc1OC [CEP-32496] | > 30 µM (inactive) | > 30 µM (inactive) | > 30 µM (inactive) | > 30 µM (inactive) | > 30 µM (inactive) |
| N#CC[C@H](C1CCCC1)n1cc(-c2ncnc3[nH]ccc23)cn1 [RUXOLITINIB] | > 30 µM (inactive) |  |  | > 30 µM (inactive) |  |
| CCS(=O)(=O)N1CCN(c2ccc(Nc3ncc(C(N)=O)c(NC4CC4)n3)cc2)CC1 [Cerdulatinib Hydrochloride] |  | 0.655 µM (active) | > 30 µM (inactive) | > 30 µM (inactive) | > 30 µM (inactive) |
| Cc1cc(C(=O)NOCCO)c(Nc2ccc(I)cc2F)n(C)c1=O [AZD-8330] | > 30 µM (inactive) | > 30 µM (inactive) | > 30 µM (inactive) | > 30 µM (inactive) | > 30 µM (inactive) |
| Cc1nc(NC(=O)N2CCC[C@H]2C(N)=O)sc1-c1ccnc(C(C)(C)C(F)(F)F)c1 [ALPELISIB] | > 30 µM (inactive) | > 30 µM (inactive) |  | > 30 µM (inactive) | > 30 µM (inactive) |
| CNC(=O)c1nn(C)c2c1C(C)(C)Cc1cnc(Nc3ccc(N4CCN(C)CC4)cc3)nc1-2 [MILCICLIB] |  | > 30 µM (inactive) | > 30 µM (inactive) | > 30 µM (inactive) | 5.68 µM (active) |
| Cn1ncc(Cl)c1-c1cc(C(=O)N[C@H](CN)Cc2ccc(F)c(F)c2)oc1Cl [UPROSERTIB] |  | > 30 µM (inactive) | > 30 µM (inactive) | > 30 µM (inactive) | > 30 µM (inactive) |
| C[C@@H](Oc1cc(C(=O)Nc2ccc(C(=O)N3CCN(C)CC3)cc2)nnc1N)c1c(Cl)ccc(F)c1Cl |  | > 30 µM (inactive) | > 30 µM (inactive) | > 30 µM (inactive) | > 30 µM (inactive) |
| Cc1[nH]c(/C=C2\C(=O)Nc3ccccc32)c(C)c1CCC(=O)O [ORANTINIB] | > 30 µM (inactive) | 1.46 µM (active) | > 30 µM (inactive) | > 30 µM (inactive) |  |
| CNC(=O)c1ccccc1Sc1ccc2c(/C=C/c3ccccn3)n[nH]c2c1 [AXITINIB] | > 30 µM (inactive) |  |  | > 30 µM (inactive) |  |
| C[C@@H](Oc1cc(-n2cnc3ccc(CN4CCN(C)CC4)cc32)sc1C(N)=O)c1ccccc1C(F)(F)F [GSK-461364] | > 30 µM (inactive) |  |  | > 30 µM (inactive) |  |
| O=C(NOCCO)c1cc(CN2OCCCC2=O)c(F)c(F)c1Nc1ccc(I)cc1F [RO-4987655] | > 30 µM (inactive) |  |  | > 30 µM (inactive) |  |
| O=C(Nc1c[nH]nc1-c1nc2cc(CN3CCOCC3)ccc2[nH]1)NC1CC1 [AT-9283] | > 30 µM (inactive) |  | > 30 µM (inactive) | > 30 µM (inactive) |  |
